Data reported in US20230322815A1, “NOVEL COMPOUNDS AND THERAPEUTIC USES THEREOF” (University of Huddersfield, priority 2020, published 2023).

Legend:
[1] = tested on: chick embryo; assay: Embryonic toxicity, HCT116 in ovo study; format: in vivo, chick (White Leghorn); details: for embryo tolerability: all doses tested, no statistically significant difference to solvent control; for % Alive / % Dead / Alive (embryos at E18) / Dead (embryos at E18): HCT116 study
Description: 10^6 tumor cells (H460, HT29 or HCT116) were grafted onto the upper chorioallantoic membrane (CAM) of the developing chick embryo on embryonic day 9 (E9). Access to the upper CAM was through a small hole drilled through the eggshell of fertilized White Leghorn eggs (into the air sac) on E9 (15 eggs per experimental group).
100 μl of freshly prepared experimental compound, vehicle control or standard-of-care (SoC) drug at their working concentrations were pipetted onto the tumor graft at E11, E13, E15 and E17. On day E18, the upper CAM (with tumor) was removed, washed by PBS buffer and then directly transferred in PFA (fixation for 48 hrs). After that, tumors were carefully cut away from normal CAM tissue and weighed.
Embryonic viability was checked daily. The number of dead embryos was also counted on E18, to evaluate treatment-induced embryo toxicity.

[2] = tested on: panel of human cancer (HT-29, DLD-1, HCT116 p53^+/+ and p53^−/−, PSN1, MiaPaCa2, BxPC3, A549, H460, GBM1) and non-cancer cell lines (ARPE-19, MCF10A, NP1); assay: Chemosensitivity of a panel of human cancer and non-cancer cell lines (MTT, 96 h); format: cell-based; details: for IC50: HT-29, DLD-1, HCT116 (p53 wild type and null), BxPC3, A549 and H460 cell lines, 96 h, MTT
Description: FIG. 7. Chemosensitivity response of a panel of human cancer and non-cancer cell lines to 96 h continuous exposure to self-assembling test compounds. a, The potency of compounds tested against cancer (HT-29, DLD-1, HCT116 p53^+/+ and […], PSN1, MiaPaCa2, BxPC3, A549, H460 and GBM1) and non-cancer cells (ARPE-19, MCF10A and NP1). Each value represents the mean IC50±standard deviation from a minimum of three independent experiments. b,c, The selectivity index (SI) for [L2Cu3]^6+ (b) and [L2Zn3]^6+ (c) for the indicated cancer cell lines; SI is defined as the mean IC50 against the particular non-cancer cell line model divided by the mean IC50 against the particular cancer cell line. […] As the SI value is calculated using the mean IC50 values, experimental error is not included in these figures. d,e, IC50 values for the clinically approved platinates (cisplatin, oxaliplatin and carboplatin) and [L2Mn3]^6+ and the corresponding SI results.
All cell lines used were maintained at low passage in antibiotic-free media and were obtained from ATCC (LGC Standards, Middlesex, UK) unless otherwise stated (Methods). HT29, DLD-1, HCT116 p53^+/+ and HCT116 p53^−/− are all colorectal adenocarcinoma cell lines derived from different individuals and harbor different combinations of oncogenic lesions (except for the HCT116 isogenic cancer cell clones that are genetically identical except for p53 status). PSN-1, BxPC-3 and MiaPaCa2 are pancreatic carcinoma cell lines and A549 and H460 are lung carcinoma cell lines. HT29, DLD-1, PSN-1, BxPC-3, A549 and H460 cell lines were cultured in RPMI-1640 growth media (Sigma) containing 2 mM L-glutamine, 1 mM sodium pyruvate and 10% fetal bovine serum (FBS). HCT116 (p53^+/+ and p53^−/−) and MiaPaCa2 cell lines were cultured in Dulbecco's Modified Eagle's Medium (Sigma), 2 mM L-glutamine and 10% FBS. The ARPE-19 retinal epithelial non-cancer cell line (Dunn et al., 1996) was cultured in DMEM/F12 media (Gibco), 2 mM L-glutamine, 1 mM sodium pyruvate and 10% FBS. The MCF10A non-cancerous human breast epithelial cell line was cultured in Minimal Essential Media Eagle (Sigma), 2 mM L-glutamine, 1 mM sodium pyruvate, 10% FBS and 1×non-essential amino acids (NEAA). NP1 and GBM1 cells were cultured on plasticware coated with poly-L-ornithine (5 μg/ml) and laminin (2.4 μg/ml) (Polson et al., 2018; Da Silva et al., 2019). […]
[L2M3]^6+ and all the other self-assembling complexes were freshly formed by adding DMSO to individual components mixing together by pipetting. […] Media and MTT were removed and formazan crystals were dissolved in 150 μl of DMSO and the absorbance of the resulting solution determined at 540 nm. […]

[3] = Direct ATP hydrolysis by the complex (mass spectroscopy); details: ATP incubated with complex alone
From the text: There are several potential mechanisms which could lead the observed kinase inhibition ‘readout’ of this screen including, i) direct ATP hydrolysis by the complex(es) and differing Km of the kinases for ATP, and, ii) dephosphorylation of the peptide substrate by the phosphatase activity of the Zn^2+ complex resulting in cycles of peptide phosphorylation by active recombinant enzyme and dephosphorylation by the complex.

[4] = dose [1]: L2Zn3 70.5 μM, L2Cu3 75 μM
[5] = dose [2]: L2Zn3 141 μM, L2Cu3 150 μM
[6] = dose [3]: L2Zn3 282 μM, L2Cu3 300 μM

SMILES	embryo tolerability [1]	% Alive [1, 4] [%]	% Dead [1, 4] [%]	Alive (embryos at E18) [1, 4]	Dead (embryos at E18) [1, 4]	% Alive [1, 5] [%]	% Dead [1, 5] [%]	Alive (embryos at E18) [1, 5]	Dead (embryos at E18) [1, 5]	% Alive [1, 6] [%]	% Dead [1, 6] [%]	Alive (embryos at E18) [1, 6]	Dead (embryos at E18) [1, 6]	IC50 [2]	selectivity indices ([2]; many of the cancer cell lines)	hydrolysis of ATP [3]
[Cu+2].[Cu+2].[Cu+2].c1ccc(-c2csc(NCCN(CCNc3nc(-c4ccccn4)cs3)CCNc3nc(-c4ccccn4)cs3)n2)nc1.c1ccc(-c2csc(NCCN(CCNc3nc(-c4ccccn4)cs3)CCNc3nc(-c4ccccn4)cs3)n2)nc1 [[L2Cu3]^6+]	well tolerated	100	0	14	0	86.67	13.33	13	2	86.67	13.33	13	2	mostly sub-μM	> 100	little or no hydrolysis of ATP
[Zn+2].[Zn+2].[Zn+2].c1ccc(-c2csc(NCCN(CCNc3nc(-c4ccccn4)cs3)CCNc3nc(-c4ccccn4)cs3)n2)nc1.c1ccc(-c2csc(NCCN(CCNc3nc(-c4ccccn4)cs3)CCNc3nc(-c4ccccn4)cs3)n2)nc1 [[L2Zn3]^6+]	well tolerated	100	0	15	0	86.67	13.33	13	2	80.00	20.00	12	3	mostly sub-μM	–	little or no hydrolysis of ATP
